Reference: patent publication US10676747B2, “Methods for improving cognitive function via modulation of quinone reductase 2” (Carmel-Haifa University Economic Corp. Ltd., priority 2014, dated 2020)

Experiments:
[1] = system: mice; test: Delay fear conditioning test after QR2 shRNA lentivirus injection into the CA1 region of hippocampus; format: in vivo, mouse
Procedure: M&M—A delay fear conditioning test was performed on two groups of mice (10 mice per group) injected with Lentivirus encoding the QR2 shRNA or a scrambled sequence one week before the experiment. The Lentivirus was injected in to the CA1 region of hippocampus. The conditioning apparatus used was four New Biotechnology Ltd. (NBT) chambers, (Panlab Harvard Apparatus, Barcelona, Spain) consisting of a Plexiglas walls (25×25×25 cm) with a 16 stainless steel rods grid floor, a dim light and speakers. The apparatus was located inside a sound proof larger, insulated plastic cabinet that excluded outside light and noise. On day 1 (training), the mice were transported to the nearby testing room and set next to the conditioning chambers for a 5 min resting period with lights off. Each chamber was wiped with 30% ethanol solution before training and each mouse was placed in the chamber individually during training. For delay fear conditioning, mice were pre-exposed to an experimental chamber for 5 min, and received 5 trials in which 4000 Hz, tone, applied for 10 seconds at 76 dB (conditioned stimuli; CS) co-terminated by a 0.36 mA foot shock applied for 2 second (unconditioned stimuli; US), separated by 3.5 min inter-trial interval (ITI). After the last training trial, the mice were left in the conditioning chamber for another 120 s and were then placed back in their home cages.
On day 2 and day 8 (1 week later) (context fear test), the mice were returned to the same experimental chamber with the same contextual configuration for 10 min. Freezing behavior was recorded. On the third day and day 9 (1 week later) (tone fear test), the mice were set next to the conditioning chambers for a 5 min resting period with lights on, then mice were placed into the same experimental chamber, with novel contextual configuration (no light, and a smooth black Plexiglas floor), for 5 min during which freezing was record under infra-red light source. […] The animals' behavior was recorded, and the data analyzed by Freeze Frame 3.0 software (Coulbourn Instruments, PA, USA). […]

[2] = system: mice; test: Morris Water Maze after QR2 shRNA injection into hippocampus (CA1 region); format: in vivo, mouse
Procedure: M&M—Spatial reference memory in the Morris Water Maze (MWM) was determined as previously described (Vorhees, Williams 2006). The pool was 1.2 m in diameter and the water was rendered opaque by the addition of white tempera. Water temperature was kept at 22° C. The platform was 8 cm in diameter. All behavioral tests and trials were performed at the same time of day (±1 hr) during the animal's light phase. The mice were acclimatized in testing room for 15 min. Mice were trained in four trials per day (trial length 60 s with 30 s ITI), over 4 consecutive days. If an animal fails to locate the platform within training time, it is usually picked up and placed on the platform for 15 s. For probe trials, the platform was removed from the maze and the animals were allowed to search for 60 s. Learning was evaluated by monitoring escape latencies to a hidden (submerged) platform and time spent in each quadrant of the maze (quadrant occupancy) with an automated video tracking system, and the data analyzed by EthoVision XT9 (Noldus Information Technology, USA). Swimming speed was similar in QR2 shRNA and scrambled injected animals (data not shown).

[3] = system: rats; test: Novel taste (saccharin) choice test after injection of QR2 shRNA virus into the IC; format: in vivo, rat; details: lentivirus injected into IC; choice test three days after saccharin; mean+/-SEM, n=12
Procedure: Micro-infusion—Rats were anesthetized with Equithesin (0.45 ml/100 g) (2.12% w/v MgSO4, 10% v/v ethanol, 39.1% v/v 1,2,-propranolol, 0.98% w/v sodium pentobarbital, and 4.2% w/v chloral hydrate), restrained in a stereotactic apparatus (Stoelting, USA) and injected bilaterally with a 10 mm 28 gauge injection cannula aimed at the rat gustatory cortex (anteroposterior, +1.2 mm relative to bregma; lateral, ±5.5 mm; ventral, −5.5 mm; (Paxinos and Watson, 1986). The injection cannula was connected via PE20 tubing to a Hamilton microsyringe driven by a micro-infusion pump (CMA/100; Carnegie Medicin). […] The injection cannula was left in position before withdrawal for an additional 1 min to minimize dragging of the injected liquid along the injection tract. To avoid lateral bias, animals were injected interchangeably between both sides. Following the microsurgery, animals were injected i.m. with antibiotic and were allowed to recuperate for one week. […]
Preference index—the preference index was calculated by the following equation [(total novel taste liquid ingested/(novel taste liquid ingested+water ingested))*100]. […]

[4] = system: rats; test: Memory extinction following a CTA paradigm in QR2 shRNA injected animals; format: in vivo, rat; details: repeated measure ANOVA; FIG. 11
Procedure: Aversion index—the aversion index is calculated by the following equation [(total water ingested/(novel taste liquid ingested+water ingested))*100].
Conditioned Taste Aversion (CTA)—Two groups of rats were deprived from water for a period of 24 hours. This was followed by 3 days of restriction were the rats received two pipettes each filled with 10 ml of water for 20 minutes each day. On the fourth day both groups received two pipettes each filled with 10 ml of an unfamiliar tasting liquid, either saccharine (0.1% w/v) or NaCl (0.3% w/v), for 20 minutes. Forty minutes following the exposure to the novel liquid the rats in the experimental group received an injection of LiCl (prepared in double distilled water (DDW)) (2% bodyweight, intraperitoneally (i.p.)) and those in the control received an injection of physiological saline (2% bodyweight, i.p.).

[5] = system: QR2 mRNA; test: QR2 mRNA expression in the IC after stereotactic injection of QR2 shRNA virus (RT-PCR); format: in vivo, rat; details: compared to scrambled virus group, n=12, p<0.005; FIG. 12
Procedure: Tissue extraction—Following the learning protocol the insular cortex was removed by hand. The insular cortex was identified through cortical landmarks, the rhinal fissure and the medial cerebral artery. The insular cortex was immediately placed in liquid nitrogen and then stored at −80° C.
(§1) mRNA quantification—We used the RNeasy lipid tissue kit (QIAGEN) according to the manufacturer's instructions in order to extract the RNA. We then evaluated RNA concentration and purity using a nanodrop spectrophotometer.
(§2) The cDNA synthesis was accomplished using the High Capacity Reverse Transcription Kit (ABI) according to the manufacturer's instructions. The reaction was carried out in a total volume of 20 μl on 1000 ng of RNA.
(§3) The qPCR reaction was performed in a total volume of 10 μl on 10 ng of cDNA. We used the following TaqMan assays (Applied Biosystems): QR2 (Rn01434728_g1), NQO1 (RN00566528_m1), glyceraldehyde-3-phosphate dehydrogenase, GAPDH (Rn01775763_g1). The reactions were carried out per the manufacturer's instructions.
(§4) Real Time-PCR analysis was performed using the PCR System STEP-ONE plus (Applied Biosystems). Relative mRNA levels were calculated using the ΔΔCt method using GAPDH as a normalizing gene: ΔΔCt=[(Ct(gene of interest)−Ct(GAPDH)) of the untreated group]−[(Ct(gene of interest)−Ct(GAPDH)) of the treated group]. The fold increase is then calculated as such: fold increase=2−ΔΔCt. […]

[6] = system: QR2 mRNA; test: QR2 mRNA expression in primary cortical cells treated with QR2 shRNA lentiviral clones; format: cell-based; details: rat primary cortical cells, week long incubation, compared to scrambled virus; FIG. 8
Procedure: as §1, §2, §3, §4
For this purpose, we evaluated three different clones (Sigma-Aldrich, Israel). […] We then evaluated QR2 mRNA expression.

v394: shRNA construct directed against mouse QR2 (Sigma-Aldrich clone), subcloned into lentiviral plasmid pFUGW; chosen clone used for the injected virus (CCGGCAGUCACUGUGUCUGAUUUAUCUCGAGAUAAAUCAGACACAGUGACUGUUUUUG)
Long term memory (response to conditioned context and tone) ([1]; 1 week later, vs scrambled sequence, context p=0.03, tone p=0.031): enhanced long term memory
Freezing response, context test ([1]; day 2, vs scrambled sequence, n=10, p=0.031): froze significantly frequently
Freezing response, tone test ([1]; day 3, vs scrambled sequence, n=10, p=0.003): froze significantly frequently
Quadrant occupancy (time in target quadrant), probe test ([2]; after completion of training, vs scrambled injected mice, p=0.031): preferential quadrant occupancy
Escape latency to hidden platform ([2]; day 4 of training, vs scrambled injected mice, p=0.036): shorter latency
Swimming speed ([2]; vs scrambled injected animals, data not shown): similar
Crossings of the platform location, probe test ([2]; vs scrambled injected mice, p=0.029): more times
Preference index (PI) [3]: 76.3+/−2.14
Memory extinction (aversion index over time) [4]: significant extinction on Day 3
QR2 mRNA expression in the IC [5]: significantly lower QR2 mRNA expression
QR2 mRNA expression [6]: slightly more effective
